Data from ChEMBL document CHEMBL3352267, “The design and implementation of a generic lipopeptide scanning platform to enable the identification of 'locally acting' agonists for the apelin receptor” (Bioorg Med Chem Lett, 2014).
Calls of active or inactive are those of the source. The rule behind the calls is not given here. Residues, ends and D or L forms follow the SMILES beside them. *: point of attachment. Palmitoyl = CCCCCCCCCCCCCCCC(=O)*

Legend:
Assay type in all cases: functional, cell-based
Apelin receptor = molecular target: T1, Apelin receptor (Homo sapiens, UniProt P35414); assay: Agonist activity at APJ receptor in HEK293 cells assessed as inhibition of forskolin-induced cAMP level incubated for 5 mins prior to forskolin challenge measured after 30 mins by TR-FRET assay
T1 sequence (P35414 whole entry): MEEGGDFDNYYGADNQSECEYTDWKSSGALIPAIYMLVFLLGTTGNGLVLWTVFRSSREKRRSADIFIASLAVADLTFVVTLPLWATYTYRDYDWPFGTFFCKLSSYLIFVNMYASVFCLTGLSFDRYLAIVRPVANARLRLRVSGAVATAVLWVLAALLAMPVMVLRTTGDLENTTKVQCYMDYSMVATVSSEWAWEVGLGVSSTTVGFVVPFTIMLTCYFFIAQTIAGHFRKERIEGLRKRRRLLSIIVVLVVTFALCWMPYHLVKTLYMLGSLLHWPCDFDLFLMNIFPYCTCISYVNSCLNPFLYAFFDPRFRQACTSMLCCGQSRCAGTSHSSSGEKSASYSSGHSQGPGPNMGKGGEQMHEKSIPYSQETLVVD

[1] = molecular target: Sphingosine 1-phosphate receptor Edg-5/Sphingosine 1-phosphate receptor Edg-3 (Homo sapiens) (UniProt O95136+Q99500); assay: Agonist activity at S1P2/3 receptor in HEK293 cells assessed as inhibition of forskolin-induced cAMP level after 1 hr by alphascreen immunoassay
[2] = molecular target: T2, Apelin receptor (Homo sapiens) (UniProt P35414); assay: Agonist activity at APJ receptor in HEK293 cells assessed as inhibition of forskolin-induced cAMP level incubated for 5 mins prior to forskolin challenge measured after 30 mins by TR-FRET assay relative to [pyr1]-apelin-13
T2 sequence (whole entry): T1 sequence (P35414 whole entry)

`CCCCCCCCCCCCCCCC(=O)N[C@H](C(=O)N[C@H](C(=O)N[C@@H](CC(C)C)C(=O)N1CCC[C@H]1C(=O)N[C@@H](CC(C)C)C(=O)N[C@@H](Cc1c[nH]c2ccccc12)C(=O)N[C@@H](C)C(=O)N[C@H](C(N)=O)[C@@H](C)O)[C@@H](C)O)C(C)C` (Palmitoyl-VTLPLWAT-NH2) was tested, and the EC50 (Apelin receptor) was > 30000 nM.

In the case of `CCCCCCCCCCCCCCCC(=O)N1CCC[C@H]1C(=O)N[C@@H](CC(C)C)C(=O)N[C@@H](Cc1c[nH]c2ccccc12)C(=O)N[C@@H](C)C(=O)N[C@H](C(=O)N[C@@H](Cc1ccc(O)cc1)C(=O)N[C@H](C(=O)N[C@@H](Cc1ccc(O)cc1)C(=O)N[C@@H](CCCNC(=N)N)C(N)=O)[C@@H](C)O)[C@@H](C)O` (Palmitoyl-PLWATYTYR-NH2), the EC50 (Apelin receptor) is reported as > 30000 nM.

With `CCCCCCCCCCCCC/C=C/[C@@H](O)[C@@H](N)COP(=O)(O)O` the Activity [1] was “Active”.

Work on `CCCCCCCCCCCCCCCC(=O)N[C@H](C(=O)N[C@H](C(=O)N[C@@H](CC(C)C)C(=O)N1CCC[C@H]1C(=O)N[C@@H](CC(C)C)C(=O)N[C@@H](Cc1c[nH]c2ccccc12)C(=O)N[C@@H](C)C(=O)N[C@@H](C)C(=O)N[C@@H](Cc1ccc(O)cc1)C(=O)N[C@H](C(=O)N[C@@H](Cc1ccc(O)cc1)C(=O)N[C@@H](CCCNC(=N)N)C(N)=O)[C@@H](C)O)[C@@H](C)O)C(C)C` (Palmitoyl-VTLPLWAAYTYR-NH2) yielded an EC50 (Apelin receptor) of 21.5 nM and a %max [2] of 53.6%.

For `CCCCCCCCCCCCCCCC(=O)N[C@H](C(=O)N[C@H](C(=O)N[C@@H](CC(C)C)C(=O)N[C@@H](C)C(=O)N[C@@H](CC(C)C)C(=O)N[C@@H](Cc1c[nH]c2ccccc12)C(=O)N[C@@H](C)C(=O)N[C@H](C(=O)N[C@@H](Cc1ccc(O)cc1)C(=O)N[C@H](C(=O)N[C@@H](Cc1ccc(O)cc1)C(=O)N[C@@H](CCCNC(=N)N)C(N)=O)[C@@H](C)O)[C@@H](C)O)[C@@H](C)O)C(C)C` (Palmitoyl-VTLALWATYTYR-NH2), the EC50 (Apelin receptor) was > 30000 nM.

With `CCCCCCCCCCCCCCCC(=O)N[C@H](C(=O)N[C@H](C(=O)N[C@@H](CC(C)C)C(=O)N1CCC[C@H]1C(=O)N[C@@H](CC(C)C)C(=O)N[C@@H](C)C(=O)N[C@@H](C)C(=O)N[C@H](C(=O)N[C@@H](Cc1ccc(O)cc1)C(=O)N[C@H](C(=O)N[C@@H](Cc1ccc(O)cc1)C(=O)N[C@@H](CCCNC(=N)N)C(N)=O)[C@@H](C)O)[C@@H](C)O)[C@@H](C)O)C(C)C` (Palmitoyl-VTLPLAATYTYR-NH2) the EC50 (Apelin receptor) was > 30000 nM.

With `CCCCCCCCCCCCCCCC(=O)N[C@H](C(=O)N[C@H](C(=O)N[C@@H](CC(C)C)C(=O)N1CCC[C@H]1C(=O)N[C@@H](C)C(=O)N[C@@H](Cc1c[nH]c2ccccc12)C(=O)N[C@@H](C)C(=O)N[C@H](C(=O)N[C@@H](Cc1ccc(O)cc1)C(=O)N[C@H](C(=O)N[C@@H](Cc1ccc(O)cc1)C(=O)N[C@@H](CCCNC(=N)N)C(N)=O)[C@@H](C)O)[C@@H](C)O)[C@@H](C)O)C(C)C` (Palmitoyl-VTLPAWATYTYR-NH2) the EC50 (Apelin receptor) was > 30000 nM.

Work on `CCCCCCCCCCCCCCCC(=O)N[C@H](C(=O)N[C@H](C(=O)N[C@@H](CC(C)C)C(=O)N1CCC[C@H]1C(=O)N[C@@H](CC(C)C)C(=O)N[C@@H](Cc1c[nH]c2ccccc12)C(=O)N[C@@H](C)C(=O)N[C@H](C(=O)N[C@@H](Cc1ccc(O)cc1)C(=O)N[C@H](C(=O)N[C@@H](C)C(=O)N[C@@H](CCCNC(=N)N)C(N)=O)[C@@H](C)O)[C@@H](C)O)[C@@H](C)O)C(C)C` (Palmitoyl-VTLPLWATYTAR-NH2) yielded an EC50 (Apelin receptor) of 2.7 nM and a %max [2] of 62.5%.

Molecule `CCCCCCCCCCCCCCCC(=O)N[C@H](C(=O)N[C@H](C(=O)N[C@@H](CC(C)C)C(=O)N1CCC[C@H]1C(=O)N[C@@H](CC(C)C)C(=O)N[C@@H](Cc1c[nH]c2ccccc12)C(=O)N[C@@H](C)C(=O)N[C@H](C(=O)N[C@@H](C)C(=O)N[C@H](C(=O)N[C@@H](Cc1ccc(O)cc1)C(=O)N[C@@H](CCCNC(=N)N)C(N)=O)[C@@H](C)O)[C@@H](C)O)[C@@H](C)O)C(C)C` (Palmitoyl-VTLPLWATATYR-NH2) has an EC50 (Apelin receptor) of 95.7 nM and a %max [2] of 84.3%.

In the case of `CCCCCCCCCCCCCCCC(=O)N[C@H](C(=O)N[C@H](C(=O)N[C@@H](CC(C)C)C(=O)N1CCC[C@H]1C(=O)N[C@@H](CC(C)C)C(=O)N[C@@H](Cc1c[nH]c2ccccc12)C(=O)N[C@@H](C)C(=O)N[C@H](C(=O)N[C@@H](Cc1ccc(O)cc1)C(=O)N[C@@H](C)C(=O)N[C@@H](Cc1ccc(O)cc1)C(=O)N[C@@H](CCCNC(=N)N)C(N)=O)[C@@H](C)O)[C@@H](C)O)C(C)C` (Palmitoyl-VTLPLWATYAYR-NH2), the EC50 (Apelin receptor) is reported as > 30000 nM.

`CCCCCCCCCCCCCCCC(=O)N[C@H](C(=O)N[C@H](C(=O)N[C@@H](C)C(=O)N1CCC[C@H]1C(=O)N[C@@H](CC(C)C)C(=O)N[C@@H](Cc1c[nH]c2ccccc12)C(=O)N[C@@H](C)C(=O)N[C@H](C(=O)N[C@@H](Cc1ccc(O)cc1)C(=O)N[C@H](C(=O)N[C@@H](Cc1ccc(O)cc1)C(=O)N[C@@H](CCCNC(=N)N)C(N)=O)[C@@H](C)O)[C@@H](C)O)[C@@H](C)O)C(C)C` (Palmitoyl-VTAPLWATYTYR-NH2) was tested, and the EC50 (Apelin receptor) was > 30000 nM.

`CCCCCCCCCCCCCCCC(=O)N[C@H](C(=O)N[C@@H](C)C(=O)N[C@@H](CC(C)C)C(=O)N1CCC[C@H]1C(=O)N[C@@H](CC(C)C)C(=O)N[C@@H](Cc1c[nH]c2ccccc12)C(=O)N[C@@H](C)C(=O)N[C@H](C(=O)N[C@@H](Cc1ccc(O)cc1)C(=O)N[C@H](C(=O)N[C@@H](Cc1ccc(O)cc1)C(=O)N[C@@H](CCCNC(=N)N)C(N)=O)[C@@H](C)O)[C@@H](C)O)C(C)C` (Palmitoyl-VALPLWATYTYR-NH2) showed an EC50 (Apelin receptor) of 41.3 nM and a %max [2] of 45%.
